“Also recorded” adds a separate entry of the source.
Key:
[1] = test system: dopaminergic system of C. elegans BY200; experiment: Basal slowing response (BSR) behavioral assay; assay type: in vivo, Caenorhabditis elegans; conditions: L4 BY200 worms treated 2 days
Protocol: The basal slowing response (BSR) is a behavioral assay that assesses the functionality of the worms’ DAergic system. For this, worms were washed three times with S-basal buffer (100 mM NaCl, 5 mg/L cholesterol, 50 mM potassium phosphate buffer, pH 6.0) to remove residual bacteria, and placed on the center of a 60-mm NGM plates in the absence or presence of an OP50 bacteria ring. After habituation (5 min), the number of body bends of each worm was counted during 20 s to determine its immobility rate. The results were expressed as the difference (Δ) between the number of body bends in the absence (a) and presence (p) of bacteria on fresh plates (Δ = a-p). […]
Fig. 5. […] They were exposed to different aerugine concentrations and counted every 24 h. […] Differences on a given day were analyzed by ANOVA and found to be non-significant. […] The GFP-labelled neurons of 20–30 worms per condition were analyzed and scored for specific neurodegeneration. […] These scores were assessed to quantify the dopaminergic neurodegeneration caused be aerugine in vivo. C Worms with wild type morphology (score 0) were counted. […] D The degeneration scores exemplified in B were quantified. […] E The “basal slowing response” was assessed as proxy for the functionality of the worms’ dopaminergic system. It was measured in L4 larval stage BY200 worms treated for 2 days with aerugine. […]

[2] = test system: Cortical neurons (Cortex.4U); experiment: iPSC-derived neuron viability, calcein-AM & H-33342 imaging; assay type: cell-based, human
Protocol: Commercial preparation of iPSC-derived neurons (Cortex.4U and CNS.4U) were handled and used as described by the manufacturer (nCardia). In brief, plates were coated with 10 μg/ml PLO, 10 μg/ml laminin and 10 μg/ml fibronectin. Cells were thawed and immediately seeded onto 96-well plates in their respective culture media (Cortex.4U: Cortex.4U™ culture medium with Cortex.4U™ supplement; CNS.4U: Neuro.4U Basal Medium [Ax-M-NBM250] with Neuro-Supplement 2 [Ax-M-DCS-DA]) to be used in neurite outgrowth assays.
The assays were performed as described previously ([Hoelting et al., 2016]; [Klima et al., 2021]; [Krug et al., 2013]). In brief, 30′000 cells per well were seeded on d2 (LUHMES) / d0 (peripheral neurons, Cortex.4U, CNS.4U) in their respective differentiation media into standard pre-coated 96-well plates. They were incubated for 1 h at 37 °C and 5% CO2 before treatment. 24 h after treatment the Calcein/Hoechst readout was performed.
Neurite area (NA) and viability (V) were assessed as described previously ([Stiegler et al., 2011]). In brief, cells were stained with 1 μM calcein-AM and 1 μg/ml H-33342 for 30 min at 37 °C and 5% CO2. Image acquisition was performed using an Array-Scan VTI HCS Reader (Cellomics, PA, USA) equipped with a Hamamatsu ORCA-ER camera. 10 fields per well were imaged with 2 channels at 20x magnification (2×2 pixel binning). Excitation/emission wavelengths of 365 ± 50/535 ± 45 nm were used for Hoechst detection in channel 1 and 474 ± 40/535 ± 45 nm were used for calcein detection in channel 2.

Hek293FT = experiment: Cell line viability, resazurin reduction, 72 h; assay type: cell-based, human; conditions: at <100 μM
Protocol: (§1) Hek293FT were acquired from ThermoFisher Scientific (cat. no. R70007). HepG2 were acquired from ATCC (HB-8065). HeLa were acquired from ATCC (CCL-2). The cell culture was performed as described previously ([Dolde et al., 2021]). Briefly, the cell lines were kept in DMEM Glutamax with 10% FCS and 1% penicillin/streptomycin at 37 °C with 5% CO2. They were grown in normal cell culture flasks (Sarstedt) to 75–90% confluence and seeded into standard 96-well plates 24 h prior to compound treatment. The cells were treated by performing a medium change to Advanced DMEM/F12 supplemented with 2 mM L-glutamine containing the indicated compound concentrations.
(§2) The assay was performed as described previously ([Schildknecht et al., 2009]). In brief, cells were stained with 10 μg/ml resazurin and incubated for 30 min at 37 °C and 5% CO2. The fluorescence of resazurin was detected with an excitation wavelength of 530 nm, using a 590 nm long-pass filter to record the emission.
(§3) Fig. 3. Cell type specificity of aerugine cytotoxicity. A Cultures of LUHMES neurons were used on d0 (proliferating, blue), d2 (immature, black) or d6 (mature, red) of differentiation for cytotoxicity testing. Cells were exposed to nine serial dilutions of synthetic aerugine. The cell viability was assessed 24 h later by calcein-AM & H-33342 staining and high content imaging. […] Dotted lines at 4 μM indicate the average EC50 for mature LUHMES. […] They were treated for 72 h with synthetic aerugine. The overall cell viability was assessed by measuring resazurin reduction in technical triplicates. Data are presented as means ± range of two biological replicates (different experiments). C Three iPSC-derived neuronal cell types were treated for 24 h with synthetic aerugine. The cell viability was assessed 24 h later by calcein-AM & H-33342 staining and high content imaging. Data are presented as means ± SEM of three biological replicates (different experiments). D Lack of cytotoxic or bacteriostatic effects of aerugine (20 μM) on exemplary gram-positive and gram-negative microbes: The growth characteristics of Enterococcus faecalis (gram-positive) and Neisseria gonorrhoeae MS11 (gram-negative) were followed during the log growth phase in their respective culture media. Data are from one biological replicate.

HepG2 = experiment: Cell line viability, resazurin reduction, 72 h; assay type: cell-based, human; conditions: HepG2, 72 h, at <100 μM
Protocol: as §1, §2, §3

HeLa = experiment: Cell line viability, resazurin reduction, 72 h; assay type: cell-based, human; conditions: at <100 μM
Protocol: as §1, §2, §3

Structure (SMILES): OCC1CSC(c2ccccc2O)=N1 (stereo not drawn) [aerugine, 2-[4-(hydroxymethyl)-4,5-dihydro-1,3-thiazol-2-yl]phenol]
- basal slowing response (BSR) [1]: attenuated; also recorded: exerted functional dopaminergic toxicity
- effect on cell viability ([2]; 24 h): sensitive to aerugine
- fold higher toxic concentration than for DA neurons (mature LUHMES) ([2]; cortical neurons vs mature LUHMES): about 50 x
- toxicity (overall cell viability, resazurin reduction) (Hek293FT): no toxicity was observed
- toxicity (overall cell viability, resazurin reduction) (Hek293FT; listed as Aerugine): non-toxic
- toxicity (overall cell viability, resazurin reduction) (HepG2): no toxicity was observed
- toxicity (overall cell viability, resazurin reduction) (HepG2; listed as Aerugine): non-toxic
- toxicity (overall cell viability, resazurin reduction) (HeLa): no toxicity was observed
- toxicity (overall cell viability, resazurin reduction) (HeLa; listed as Aerugine): non-toxic
